From US10648979B2, “Molecular probes for detecting gram-negative bacteria in vitro and in vivo” (priority 2014, dated 2020)
Bridge positions count the residues as written; N and C are the ends. Square brackets hold non-standard residues; d marks the D form. Peptide text beside a SMILES is read from it. * marks the point of attachment. ξ: configuration not given here. NBD = O=[N+]([O-])c1ccc(*)c2nonc12; dDab = NCC[C@@H](N)C(=O)O; Dab = NCC[C@H](N)C(=O)O; AEEA = NCCOCCOCC(=O)O; ξDab = NCCC(N)C(=O)O

How the values were obtained:
[1] = Emission spectra of probes in PBS or DMSO (hydrophobic environment); type: physicochemical; settings: excited at 488 nm; NBD-UBIdend 5 μM, NBD-UBINle 15 μM, NBD-PMX 10 μM
Description: A) Emission spectra shown for NBD-UBIdend (5 μM) and NBD-UBINle (15 μM) in the presence of PBS or DMSO (hydrophobic environment) when excited at 488 nm wavelength. B) Emission spectra shown for NBD-PMX (10 μM) in the presence of PBS or DMSO (hydrophobic environment) when excited at 488 nm wavelength. The fluorescence of both probes greatly increases under hydrophobic conditions as would be present upon binding to the bacterial membrane target.
To confirm the fluorescent reporter NBD retains its characteristics when coupled with our peptide moieties we measured the fluorescence of the compounds in conditions to mimic a hydrophobic environment (DMSO).

[2] = test system: bacteria instilled into ovine lung segments; test: Ex vivo ovine lung model of bacterial infection, in situ labelling imaged by FCFM
Description: FIG. 9: Ex vivo model of bacterial infection. A) Ovine lungs were harvested, ventilated and placed in a neonatal incubator with ambient temperature of 37° C. Pulmonary segments were instilled with PBS (control) or bacteria via bronchoscopy. Probes were then instilled and segments imaged with fibered confocal fluorescence microscopy (FCFM) using 488 nm Laser Scanning Unit (LSU). […] Bacteria (MSSA) instilled into segments of ovine lung and lavaged at 1, 3 and 5 hours (n=3), plated for CFU/ml and counted following 16 hour incubation.
NBD-UBIdend and NBD-PMX were assessed for in situ specificity and sensitivity in an ex vivo ovine model of bacterial infection (FIG. 9). […] We observed identical patterns with Calcein-labelled bacteria and Green Fluorescent Protein-expressing S. aureus which were instilled into the lung and imaged with FCFM (FIG. 10A). This pattern is reproduced identically by instilling bacteria “pre-labelled” with NBD-UBIdend and NBD-PMX into lung segments.
Following this thorough characterisation of the model and positive controls, we instilled PBS or VAP-relevant bacteria into distinct segments within the ex vivo lung model, followed by the microdosed delivery of the probes.
All compounds have undergone biological assessment.
Bacteria were grown to midlog phase in 400 ml TSB, pelleted by centrifugation and resuspended in 2 ml PBS. This was mixed with 18 ml molten tryptic-soy agar (50° C.) and injected rapidly into vortexing mineral oil +0.01% Span 80, pre-warmed to 50° C. This was then rapidly cooled to 4° C. whilst continuing to vortex to allow the beads to set. Bacterial agar beads were pelleted by centrifugation (20 minutes, 3000 g) and washed in 0.5% sodium deoxycholate (SDC) in PBS (20 minutes, 3000 g), followed by 0.25% SDC (20 minutes, 3000 g) in PBS, washed in PBS (10 minutes, 3000 g) and 3×PBS (5 minutes, 200 g). Beads were resuspended at 50% v/v in PBS for instillation.
From a cohort of surplus stock ewes which were destined for cull, one ewe was identified and terminally euthanized with an overdose of anaesthetic. Death was confirmed and the trachea was identified and clamped in situ. The thoracic cavity was then accessed and the lungs were freed from surrounding tissues and organs and the heart/lung was removed en block. The right pulmonary artery was identified, cannulated and perfused with 1000 ml 0.9% NaCl. Once filling of the left ventricle was confirmed an incision was made to allow free drainage and perfusion continued until the drainage from the left atrium was clear. The lungs were then transferred to the Queen's Medical Research Institute and the trachea was intubated with an 8.0 endotracheal tube immediately following clamp release. […]

PA3284 = test: Bacterial labelling in the presence or absence of ovine lavage (confocal); type: cell-based, Pseudomonas aeruginosa; settings: 1 μM
bacteria in ovine lung = test: Automated image processing of entire FCFM videos from ovine lung; settings: 80 spots per frame threshold
Description: FIG. 19: Image Processing Algorithms delineate ‘positive’ and ‘negative’ frames from FCFM data A) raw data for a frame that is deemed positive or negative. B) Without pre-processing, spot-detection is ineffective. Following estimation of background noise C), high-pass filtering D) and appropriate thresholding E), the current algorithm detect minimal punctate signal in negative frames F).
Analysis of NBD-UBIdend videos with thresholding at 80 spots per frame and an arbitrary cut-off of 10% enables objective detection of bacteria using a combination of Laplacian of Gaussian (LoG) and Difference of Gaussians (DoG) positive frames. […]
We have begun to develop bespoke image analysis/processing strategies to perform rapid real-time objective analysis of the large datasets generated by the probe/FCFM platform. […] These signal and image processing algorithms will be rapidly iterated in readiness for clinical application, and we expect significant components of machine-learning to be incorporated into further optimisation of NBD-UBIdend and NBD-PMX datasets.
Spots are enhanced in an image by convolving with a LoG or DoG filter. […] Finally, spots are detected with LoG or DoG. […]

[3] = water
[4] = room temperature
human erythrocytes = test: Haemolysis assay; settings: up to 100 μM; 0.2% Triton-X = 100%
Description: Positive control was 0.2% Triton-X and values corrected to represent 100% haemolysis for Triton-X.
Erythrocytes were isolated from freshly drawn, anticoagulated human blood and resuspended to 20 vol % in PBS (pH 7.4). In a 96-well microtiter plate, 100 μl of erythrocyte suspension was added to 100 μl of NLLP solution in PBS (prepared by 1:2 serial dilutions) or 100 μl of PBS in the case of negative controls. One-hundred percent haemolysis wells contained 100 μl of red cell suspension with 100 μl of 0.2 vol % Triton X-100. The plate was incubated for 1 h at 37° C., and then each well was diluted with 150 μl of PBS. The plate was then centrifuged at 1,200 g for 15 min, 100 μl of the supernatant from each well was transferred to a fresh microtiter plate, and A350 was measured. Percentage of haemolysis was determined as (A−A0)/(Atotal−A0)×100, where A is the absorbance of the test well, A0 the absorbance of the negative controls, and Atotal the absorbance of 100% haemolysis wells, all at 350 nm on a Biotek plate reader.

Structure (SMILES): CC(C)C[C@@H]1NC(=O)[C@@H](Cc2ccccc2)NC(=O)[C@@H](CCN)NC(=O)C(NC(=O)[C@H](CCN)NC(=O)[C@@H](NC(=O)COCCOCCNc2ccc([N+](=O)[O-])c3nonc23)[C@@H](C)O)CCNC(=O)[C@@H]([C@H](C)O)NC(=O)[C@H](CCN)NC(=O)[C@H](CCN)NC1=O (stereo partly shown) [NBD-PMX] ({NBD-AEEA}-T[Dab][ξDab][dDab][dF]L[Dab][Dab][dT]; lactam 3-C)
- fluorescence in DMSO compared to PBS [1]: significant increase in fluorescence
- detection of bacteria-coated agarose beads in situ ([2]; FCFM): when beads are coated with bacteria a signal is seen
- in situ labelling of bacteria in segments instilled with bacteria ([2]; FCFM): demonstrated labelling
- signal in segments with PBS or gram-positive bacteria ([2]; MSSA, MRSA, S. pneumoniae): no signal in segments with PBS or gram-positive bacteria
- signal in segments instilled with gram-negative bacteria ([2]; P. aeruginosa (PA01, J3284), K. pneumoniae, E. coli): the same signal as in the ‘positive controls’
- fluorescence in ovine lavage versus absence of lavage (PA3284): no significant reduction of fluorescence intensity
- detection by automated image processing (percentage positive frames, YES/NO) (bacteria in ovine lung): unequivocal detection of bacteria and Gram status
- Solubility [3]: Fully soluble in water
- Stability [4]: > 1 week
- red cell haemolysis (human erythrocytes): no red cell haemolysis
